# Measured values: patent US11040053B2, “Compositions and methods for activating “stimulator of interferon gene”13 dependent signalling” (CHINOOK THERAPEUTICS, INC., priority 2015, dated 2021)
# “Also recorded” adds a separate entry of the source.
# What was measured:
# MC38 = MC38 colon carcinoma mouse model, intra-tumoral injection; assay type: in vivo, C57BL/6 female mice; settings: FIG. 15B, IT 10 or 100 μg, three injections, vs HBSS
# Experimental: To assess the ability of the fluorinated derivative compounds to promote anti-tumor immunity in diverse murine tumor models, tumor cells were implanted (in 100 μL PBS) subcutaneously on the lower back of 6-8 week old C57BL/6 female mice. Treatments began when tumors reached a volume of approximately 100 mm^3, on approximately day 14 post tumor implantation (see table below for tumor type, number of cells, and day of IT injection). The CDN compounds were administered by IT injection (10 or 100 μg in a total volume of 40 μL HBSS), and repeated every three days for a total of three injections. The compounds 3′3′-RR-(2′F-A)(2′F-A) and 3′3′-RR-(2′F-G)(2′F-A) and control mice given vehicle only (40 μL HBSS) were dosed. Tumors were measured twice weekly.
# HIVgag p55 protein = experiment: Immunization with HIVgag p55 protein plus CDN, splenocyte IFNγ ELISPOT; assay type: in vivo, BALB/c mice; settings: 1 μg or 5 μg CDN in AddaVax with 5 μg HIVgag p55 s.c., day 7 IFNγ ELISPOT, vs no CDN; for HIVgag p55 antigen specific CD4+ T-cell response, in words: FIG. 16A
# Experimental: To determine whether the fluorinated derivatives could elicit HIVgag-specific CD4^+ and CD8^+ T cell responses, BALB/c mice (n=4) were immunized subcutaneously with 0 μg (no CDN), 1 μg or 5 μg of CDN formulated in 2% squalene-and-water (AddaVax, Invivogen) with 5 μg HIVgag p55 protein. Seven days following the vaccination, spleens were harvested from the mice and splenocytes prepared. 2×10^5 splenocytes were stimulated overnight in an IFNγELISPOT assay with media alone (unstimulated) or with 1 μM HIVgag p55 CD4^+ and CD8^+ specific peptides. IFNγ ELISPOTs were developed and quantified using a CTL plate reader and ImmunoSpot software. 3′3′-RR-(2′F-A)(2′F-A) and 3′3′-RR-(2′F-G)(2′F-A) were evaluated for their ability to induce HIVgag-specific immune responses.
# [1] = target: T1, wild type (WT) STING allele (Homo sapiens, UniProt Q86WV6, H232R); experiment: Cytokine transcript induction (qRT-PCR) in STING^WT/WT hPBMCs; assay type: cell-based; settings: for relative normalized IFNβ expression, in words: FIGS. 7A-B, 2 hours stimulation, 100 μM to 0.1 μM
# T1 construct: one donor was homozygous for the wild type (WT) STING allele; endogenous in cells; host or cells: human PBMCs, donor STING WT/WT
# Experimental: (§1) The induction of type I interferon was measured in human primary blood mononuclear cells (hPBMCs) to evaluate the potency of mono- or di-F-CDN compounds as described herein. hPBMCs from two unique donors were used: one donor was homozygous for the wild type (WT) STING allele (STING^WT/WT) and the other donor was homozygous for the so-called reference (REF) STING allele (STING^REF/REF). The STING genotype of these donors was determined by PCR amplification and sequencing: genomic DNA was isolated from 10^4 hPBMCs using Quick Extract DNA Extraction Solution (Epicentre) and was used to amplify regions of exon 3, 6, and 7 of the human STING gene.
# (§2) Cells were incubated at 37° C., 5% CO2 with concentrations ranging from 100 μM to 0.1 μM of each CDN. After 2 hours (FIGS. 7 and 8) or 2 hours and 6 hours (FIGS. 9-13) stimulation, cells were harvested by centrifugation and washed once with phosphate-buffered saline. Cellular RNA was isolated using the Aurum Total RNA 96 Kit and cDNA was synthesized using the iScript cDNA Synthesis Kit. Target and reference gene expression was assessed by real-time qRT-PCR using PrimePCR probe assays and the CFX96 gene cycler (all reagents and equipment from BioRad). Normalized IFNβ expression was expressed relative to untreated cells. Target genes included type I interferon (IFNβ), Th1-associated cytokines (IFNγ, IL-12p40) and NF-kB dependent inflammatory cytokines (TNFα, IL-6). Reference genes included GUSB alone (FIGS. 7 and 8) or GUSB and HSP90AB1 (FIGS. 9-13).
# [2] = target: T2, reference (REF) STING allele (Homo sapiens, UniProt Q86WV6); experiment: Cytokine transcript induction (qRT-PCR) in STING^REF/REF hPBMCs; assay type: cell-based; settings: for relative normalized IFNβ expression, in words: FIGS. 8A-B, 2 hours stimulation, 100 μM to 0.1 μM; for cytokine responses (IFNβ, TNFα, IL-6, IFNγ, IL-12p40 expression), in words: FIGS. 9B-13B, 2 hours and 6 hours stimulation
# T2 construct: endogenous in cells
# Experimental: as §1, §2
# B16.SIY cells = experiment: B16.SIY melanoma mouse model, intra-tumoral injection; assay type: in vivo, C57BL/6 mice
# Experimental: To determine whether the derivative molecules elicit anti-tumor immunity, 6-8 week old female C57BL/6 mice (8 mice per group) were implanted with B16.SIY cells (5×10^5 cells in 100 μL PBS). Mice were treated with reference compound 3′3′-RR-(A)(A) and di-F compound 3′3′-RR-(2′F-A)(2′F-A) (5, 50, 100 μg in a total volume of 40 μL HBSS), or HBSS vehicle control. Treatments began when tumors reached a volume of approximately 100 mm^3, on day 9 post tumor implantation. The CDN compounds were administered by […] injection into the center of the tumor (IT) using a 27 gauge needle. Mice were bled on day 16 post tumor implantation and PBMCs were isolated by Ficoll gradient (Miltenyi Biotech). 1×10^5 PBMCs were pre-incubated with anti-CD16/32 monoclonal antibody to block potential nonspecific binding, and labeled with PE-MHC class I pentamer (Proimmune) consisting of murine H-2Kb complexed to […] (SIY, SEQ ID NO: 16) peptide, anti-TCRβ-AF700 (H57-597), anti-CD8-Pacific Blue (53-6.7), anti-CD4-Pacific Orange (RM4-5) (all antibodies from BioLegend) and the Fixable Viability Dye eFluor 450 (eBioscience). Stained cells were analyzed using FACS Versa cytometer with FACSDiva software (BD). Data analysis was conducted with FlowJo software (Tree Star).
# [3] = listed as 3′3′-RR-(2′F-A)(2′F-A)
# T1 sequence (Q86WV6 whole entry H232R): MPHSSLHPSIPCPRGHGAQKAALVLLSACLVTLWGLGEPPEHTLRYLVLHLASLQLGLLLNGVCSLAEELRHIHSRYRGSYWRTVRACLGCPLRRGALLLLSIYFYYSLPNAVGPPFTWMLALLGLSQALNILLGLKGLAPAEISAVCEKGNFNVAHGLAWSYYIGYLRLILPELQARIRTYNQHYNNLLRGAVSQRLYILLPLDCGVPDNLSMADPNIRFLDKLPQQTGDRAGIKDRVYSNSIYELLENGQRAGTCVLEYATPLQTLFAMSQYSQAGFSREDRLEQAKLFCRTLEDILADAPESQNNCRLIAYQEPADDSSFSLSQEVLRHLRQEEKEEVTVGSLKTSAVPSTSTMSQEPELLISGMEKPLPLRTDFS
# T2 sequence (Q86WV6 whole entry): as the sequence (Q86WV6 whole entry H232R) above, with R232H counted along it
Structure (SMILES),"tumor volume, in words (MC38)","HIVgag p55 antigen specific CD4+ T-cell response, in words (HIVgag p55 protein)","HIVgag p55 antigen specific CD8+ T-cell response, in words (HIVgag p55 protein; FIG. 16B)","relative normalized IFNβ expression, in words [1]",IFNβ level compared to the parent cGAMP compound ([1]; in the dose range tested),IFNβ transcript level compared to cells similarly dosed with 2′3′-(G)(A) [2],"relative normalized IFNβ expression, in words ([2]; listed as 3′3′-RR-(2′F-G)(2′F-A))","cytokine responses (IFNβ, TNFα, IL-6, IFNγ, IL-12p40 expression), in words [2]","tumor volume / tumor growth, in words (B16.SIY cells; FIG. 14A, IT injection 5, 50, 100 μg, established B16-SIY melanomas)","percent of SIY-specific CD8+ T cells in PBMCs, in words (B16.SIY cells; FIG. 14B, 5 μg IT, day 7 post-IT injection, vs HBSS control)","relative normalized IFNβ expression, in words [1, 3]","relative normalized IFNβ expression, in words [2, 3]"
"Nc1nc2c(ncn2[C@@H]2O[C@@H]3CO[P@@](=O)(S)O[C@H]4[C@@H](F)[C@H](n5cnc6c(N)ncnc65)O[C@@H]4CO[P@@](=O)(S)O[C@H]3[C@H]2F)c(=O)[nH]1 (stereo in doubt) [Compound 14, 2-Amino-9-((2R,3R,3aR,5R,7aR,9R,10R,10aR,12R,14aR)-9-(6-amino-9H-purin-9-yl)-3,10-difluoro-5,12-dimercapto-5,12-dioxidooctahydro-2H,7H-difuro [3,2-d:3′,2′-j][1,3,7,9]tetraoxa[2,8]diphosphacyclododecin-2-yl)-1,9-dihydro-6H-purin-6-one]",elicited complete tumor regression at all doses tested,eliciting significant CD4+ T cell responses against HIVgag p55,elicited significant CD8^+ T cell responses against HIVgag p55,most potent inducer of type I interferon in STING^WT/WT hPBMCs,10-100 fold,12- to 70 fold,stimulated dose-dependent production of IFNβ transcript; also recorded: more potent inducers of IFNβ transcript STING^REF/REF hPBMCs than 2′3′-(G)(A); also recorded: extremely potent stimulator of the REF STING allele,induced more robust dose-dependent responses of each of the cytokines tested,–,–,–,–
"Nc1ncnc2c1ncn2[C@@H]1O[C@@H]2CO[P@@](=O)(S)O[C@H]3[C@@H](F)[C@H](n4cnc5c(N)ncnc54)O[C@@H]3CO[P@@](=O)(S)O[C@H]2[C@H]1F [Compound 6, (2R,3R,3aR,5R,7aR,9R,10R,10aR,12R,14aR)-2,9-bis(6-amino-9H-purin-9-yl)-3,10-difluoro-5,12-dimercaptooctahydro-2H,7H-difuro[3,2-d:3′,2′-j][1,3,7,9]tetraoxa[2,8]diphosphacyclododecine 5,12-dioxide]",elicited complete tumor regression at all doses tested,eliciting significant CD4+ T cell responses against HIVgag p55,–,–,–,–,–,induced more robust responses of all of the cytokines tested,rejected the growth of established B16-SIY melanomas at all doses,elicited significantly SIY-specific CD8^+ T cells,induced similar levels of IFNβ; also recorded: induced higher levels of IFNβ transcript when compared to the 3′3′-(A)(A) compound; also recorded: stimulated higher levels of IFNβ transcript by STING^WT/WT hPBMCs when compared to non-canonical 2′3′-(G)(A),stimulated dose-dependent production of IFNβ transcript; also recorded: more potent inducers of IFNβ transcript STING^REF/REF hPBMCs than 2′3′-(G)(A)
